Measurements taken from US20240199608A1 (Eli Lilly and Company, priority 2022, published 2024).

Biological target: T1, Human AhR (Homo sapiens, UniProt P35869)
T1 construct: expressed in transfected cells
T1 sequence (P35869 11-848): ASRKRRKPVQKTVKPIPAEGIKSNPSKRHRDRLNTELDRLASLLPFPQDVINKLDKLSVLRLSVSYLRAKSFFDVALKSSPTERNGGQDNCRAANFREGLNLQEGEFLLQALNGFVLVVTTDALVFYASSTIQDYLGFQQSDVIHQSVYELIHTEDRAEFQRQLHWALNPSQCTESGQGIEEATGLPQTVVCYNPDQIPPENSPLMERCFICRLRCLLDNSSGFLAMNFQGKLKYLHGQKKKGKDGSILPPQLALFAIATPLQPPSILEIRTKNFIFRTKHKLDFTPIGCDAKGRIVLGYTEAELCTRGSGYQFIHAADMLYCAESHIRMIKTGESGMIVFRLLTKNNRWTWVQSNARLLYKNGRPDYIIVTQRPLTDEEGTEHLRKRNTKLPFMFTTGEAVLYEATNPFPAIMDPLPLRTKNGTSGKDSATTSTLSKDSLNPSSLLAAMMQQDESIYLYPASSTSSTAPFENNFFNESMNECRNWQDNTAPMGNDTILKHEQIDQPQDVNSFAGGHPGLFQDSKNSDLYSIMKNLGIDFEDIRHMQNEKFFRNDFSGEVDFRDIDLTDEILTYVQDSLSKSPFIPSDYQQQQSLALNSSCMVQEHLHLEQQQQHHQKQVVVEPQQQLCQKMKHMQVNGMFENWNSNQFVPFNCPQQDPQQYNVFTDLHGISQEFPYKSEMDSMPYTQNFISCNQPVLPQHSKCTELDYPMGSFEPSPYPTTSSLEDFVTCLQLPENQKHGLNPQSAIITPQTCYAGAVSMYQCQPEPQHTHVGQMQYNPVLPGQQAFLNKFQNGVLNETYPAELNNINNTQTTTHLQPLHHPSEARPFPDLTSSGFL
Assay: hAHR Nuclear Translocation Assay
Assay type: cell-based
Conditions: AhR-EGFP nuclear translocation in Jump-In T-REx HEK293 cells, 45 minutes incubation; class symbols; read-out: Rel EC50
Description: The purpose of this assay is to measure the ability of compounds to bind to, activate, and induce the translocation of AhR into the nucleus of a cell for transcription. Stable cell lines were established using Jump-InTM T-RExTM HEK293 Retargeting Kit (Life Technologies). Human AhR cDNA was cloned into the pJTI R4 CMV-TO EGFP vector. The EGFP was cloned to the C-terminal of AHR to form AhR-EGFP chimera. The pJTI R4 CMV-TO AhR-EGFP vector was transfected using FuGENE® HD into Jump-InTM T-RExTM HEK293 cells. Transfected cells were selected using 2.5 mg/ml G418 for 10 to 14 days, then expanded, harvested, and suspended in freeze media (FBS with 8% DMSO) at 2×10^7 cells/ml, and aliquots were stored in liquid nitrogen. One day before the assay date, cells were thawed and resuspended in DMEM with 5% FBS in the presence of 1 μg/ml Doxycycline and plated into ploy-L-Lysine coated […]-384 ULTRA Microplates (Perkin Elmer) at 12,000 to 15,000 cells per well and incubated at 37° C. and 5% CO2 overnight. On the assay date, compound was serially diluted (1:2) into 384-well nunc plates with DMSO using acoustic dispensing (ECHO®). The dose response was a 20-point curve. […] The culture media was damped and 25 μl of DMEM plus 0.1% BSA was added, then 25 μL of compound in DMEM plus 0.1% BSA was added into cell plates. Cells were incubated compounds at 37° C. and 5% CO2 for 45 minutes. The final DMSO concentration was 0.2%. The media was damped after 45 minutes incubation. The cells were fixed with 40 μl of cold MeOH (-20° C.) for 20 minutes. The MeOH was damped and 50 μL of DPBS containing 1 μg/mL Hochst was added into the cell plates. The intensity of EGFP was quantitated by using Opera PHENIX® or OPERETTA® high content image system (Perkin Elmer) with 20× Water Objective and five field per well. The ratio of EGFP fluorescent intensity in nuclear over cytosol was analyzed using a 4-parameter nonlinear logistic equation to determine the potency of AhR agonists.

Structure (SMILES) | EC50 [nM]
O=C(Nc1ncc(F)cn1)c1cc2c(n3cnnc13)CCC2C1CC1 (single isomer, unassigned) [Example 67, 6-Cyclopropyl-N-(5-fluoropyrimidin-2-yl)-7,8-dihydro-6H-cyclopenta[e][1,2,4] triazolo[4,3-a]pyridine-4-carboxamide] | 1 to 10
COc1ccccc1NC(=O)c1cc2c(n3cnnc13)CCC2C (single isomer, unassigned) [Example 21, N-(2-methoxyphenyl)-6-methyl-7,8-dihydro-6H-cyclopenta[e][1,2,4] triazolo[4,3-a]pyridine-4-carboxamide] | > 50
CCCC1CCc2c1cc(C(=O)Nc1ncc(F)cn1)c1nncn21 (single isomer, unassigned) [Example 68, N-(5-Fluoropyrimidin-2-yl)-6-propyl-7,8-dihydro-6H-cyclopenta[e][1,2,4] triazolo[4,3-a]pyridine-4-carboxamide] | 10 to 50
COc1cnc(NC(=O)c2cc3c(n4cnnc24)CCC3C)nc1 (single isomer, unassigned) [Example 49, N-(5-Methoxypyrimidin-2-yl)-6-methyl-7,8-dihydro-6H-cyclopenta[e][1,2,4] triazolo[4,3-a]pyridine-4-carboxamide] | 10 to 50
Cc1nnc2c(C(=O)Nc3ncc(F)cn3)cc3c(n12)CCC3C (single isomer, unassigned) [Example 52, N-(5-Fluoropyrimidin-2-yl)-1,6-dimethyl-7,8-dihydro-6H-cyclopenta[e][1,2,4] triazolo[4,3-a]pyridine-4-carboxamide] | > 50

Now from value to molecule:

EC50 [nM] | Structure (SMILES)
1 to 10 | CC1CCc2c1cc(C(=O)Nc1ccc(F)cn1)c1nncn21 (single isomer, unassigned) [Example 42, N-(5-Fluoropyridin-2-yl)-6-methyl-7,8-dihydro-6H-cyclopenta[e][1,2,4] triazolo[4,3-a]pyridine-4-carboxamide]
> 50 | CC1CCc2c1cc(C(=O)Nc1ccon1)c1nncn21 (single isomer, unassigned) [Example 33]
1 to 10 | CC1CCc2c1cc(C(=O)Nc1ncccc1F)c1nncn21 (single isomer, unassigned) [Example 37, N-(3-Fluoropyridin-2-yl)-6-methyl-7,8-dihydro-6H-cyclopenta[e][1,2,4] triazolo[4,3-a]pyridine-4-carboxamide]
1 to 10 | CC1CCc2c1cc(C(=O)Nc1ccns1)c1nncn21 (single isomer, unassigned) [Example 38, N-(Isothiazol-5-yl)-6-methyl-7,8-dihydro-6H-cyclopenta[e][1,2,4] triazolo[4,3-a]pyridine-4-carboxamide]
1 to 10 | CC1CCc2c1cc(C(=O)Nc1ccon1)c1nncn21 (single isomer, unassigned) [Example 32]
> 50 | CC1CCc2c1cc(C(=O)Nc1ccno1)c1nncn21 (single isomer, unassigned) [Example 44, N-(Isoxazol-5-yl)-6-methyl-7,8-dihydro-6H-cyclopenta[e][1,2,4] triazolo[4,3-a]pyridine-4-carboxamide]
